For this assay, the system named is P388 leukemia ip, CD2F1 mice, survival T/C. The assay can be described thus: NCI In Vivo Anticancer Drug Screen. Data for tumor model P388 Leukemia (intraperitoneal) in CD2F1 (CDF1) mice. The conditions noted are these: endpoint: median survival time, higher = longer survival. The procedure, abridged: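 Mice carrying the transplanted tumor received test compound or vehicle. Survival was recorded in each group, and the value is the treated-group measurement divided by that of the vehicle-treated control group.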

The mark [1] stands for this setting: dose: 5.0 mg/kg/injection, schedule: Q01DX009 (ip), vehicle: saline.
Setting [2] is: dose: 12.5 mg/kg/injection, schedule: Q01DX009 (ip), vehicle: saline with Tween-80.
[3] abbreviates: dose: 25.0 mg/kg/injection, schedule: Q01DX009 (ip), vehicle: saline with Tween-80.
Where [4] appears, read: dose: 50.0 mg/kg/injection, schedule: Q01DX009 (ip), vehicle: saline with Tween-80.
Setting [5] is: dose: 100.0 mg/kg/injection, schedule: Q01DX009 (ip), vehicle: saline with Tween-80.
The mark [6] stands for this setting: dose: 50.0 mg/kg/injection, schedule: Q01DX005 (ip), vehicle: Klucel (hydroxypropylcellulose) (HPC).
Where [7] appears, read: dose: 100.0 mg/kg/injection, schedule: Q01DX005 (ip), vehicle: Klucel (hydroxypropylcellulose) (HPC).
Setting [8] is: dose: 60.0 mg/kg/injection, schedule: Q01DX005 (ip), vehicle: saline with Tween-80.
Where [9] appears, read: dose: 120.0 mg/kg/injection, schedule: Q01DX005 (ip), vehicle: saline with Tween-80.
[10] abbreviates: dose: 240.0 mg/kg/injection, schedule: Q01DX005 (ip), vehicle: saline with Tween-80.
The mark [11] stands for this setting: dose: 100.0 mg/kg/injection, schedule: Q04DX002 (ip), vehicle: Klucel (hydroxypropylcellulose) (HPC).

Several values for one entry are separate records, joined by “and”; a condition that tells them apart may be missing. Equal values may be shown once. Toxic doses and inconclusive results are not listed.

`CCCCCCCCCCNCCS`: the T/C was 91 % of control under setting [1]; 91 % of control (dose: 10.0 mg/kg/injection, schedule: Q01DX009 (ip), vehicle: saline); 95 % of control (dose: 20.0 mg/kg/injection, schedule: Q01DX009 (ip), vehicle: saline).
On to `C(=NCCN=CC1CCCC[N-]1)C1CCCC[N-]1.[Cu+2].[O-][Cl+3]([O-])([O-])O` (configuration not stated), for which the T/C runs as follows: under setting [2], 115 % of control; under setting [3], 98 % of control.
In the case of `CCCCOC1OCN(CCCN(C)C)CC1(C)C` (configuration not stated), the T/C is 108 % of control under setting [4]; 122 % of control under setting [5]; 122 % of control (dose: 200.0 mg/kg/injection, schedule: Q01DX009 (ip), vehicle: saline with Tween-80).
With `CCC1CN2CCO[Si](CC[Si](C)(C)C)(OCC2)O1` (configuration not stated), the T/C under setting [6] was 97 % of control; the T/C under setting [7] is 97 % of control; the T/C (dose: 200.0 mg/kg/injection, schedule: Q01DX005 (ip), vehicle: Klucel (hydroxypropylcellulose) (HPC)) was 101 % of control and 104 % of control.
Take `Cc1ccc(C(=S)N=P(c2ccccc2)(c2ccccc2)c2ccccc2)cc1`: the T/C by setting is: (dose: 50.0 mg/kg/injection, schedule: Q01DX005 (ip), vehicle: saline with Tween-80) 99 % of control; (dose: 100.0 mg/kg/injection, schedule: Q01DX005 (ip), vehicle: saline with Tween-80) 107 % of control; (dose: 200.0 mg/kg/injection, schedule: Q01DX005 (ip), vehicle: saline with Tween-80) 100 % of control.
As to `O=C(OC1(c2nccc3ccccc23)CCNCC1)c1ccccc1`, the T/C runs as follows: (dose: 12.5 mg/kg/injection, schedule: Q01DX005 (ip), vehicle: Klucel (hydroxypropylcellulose) (HPC)) 111 % of control; (dose: 25.0 mg/kg/injection, schedule: Q01DX005 (ip), vehicle: Klucel (hydroxypropylcellulose) (HPC)) 109 % of control; under setting [6], 103 % of control and 104 % of control.
Turning to `CCN(Cc1ccccc1)C(=O)Nc1c(Cl)cccc1Cl`, the T/C is 92 % of control under setting [8], 95 % of control under setting [9] and 86 % of control under setting [10].
Turning to `C/C=C(\C)c1cc(=O)c2c(C)cc3c(c2o1)C(=O)c1c(O)c(C2CC(C)(N(C)C)C(O)C(C)O2)cc(C2CC(N(C)C)C(O)C(C)O2)c1C3=O` (configuration not stated), the T/C (dose: 0.31 mg/kg/injection, schedule: Q01DX009 (ip), vehicle: saline) is 100 % of control; the T/C (dose: 0.62 mg/kg/injection, schedule: Q01DX009 (ip), vehicle: saline) was 153 % of control; the T/C (dose: 1.25 mg/kg/injection, schedule: Q01DX009 (ip), vehicle: saline) is 91 % of control; the T/C (dose: 2.0 mg/kg/injection, schedule: Q01DX009 (ip), vehicle: Klucel (hydroxypropylcellulose) (HPC)) was 118 % of control; the T/C (dose: 2.0 mg/kg/injection, schedule: Q01DX009 (ip), vehicle: saline) was 154 % of control; the T/C (dose: 3.0 mg/kg/injection, schedule: Q01DX009 (ip), vehicle: saline) is 109 % of control. Besides, the T/C by setting is: under setting [1], 94 % of control; (dose: 6.25 mg/kg/injection, schedule: Q01DX009 (ip), vehicle: saline with Tween-80) 95 % of control.
As to `S=C(S)NN1CCCC1`, the T/C is, setting by setting: under setting [2], 100 % of control; under setting [3], 100 % of control; under setting [4], 100 % of control.
Consider `N#CN=[N+]([O-])c1ccc(Cl)cc1`, for which the T/C is, setting by setting: (dose: 3.12 mg/kg/injection, schedule: Q01DX009 (ip), vehicle: Klucel (hydroxypropylcellulose) (HPC)) 107 % of control; (dose: 6.25 mg/kg/injection, schedule: Q01DX009 (ip), vehicle: Klucel (hydroxypropylcellulose) (HPC)) 114 % of control; (dose: 6.25 mg/kg/injection, schedule: Q04DX003 (ip), vehicle: Klucel (hydroxypropylcellulose) (HPC)) 97 % of control; (dose: 12.5 mg/kg/injection, schedule: Q01DX009 (ip), vehicle: Klucel (hydroxypropylcellulose) (HPC)) 98 % of control; (dose: 12.5 mg/kg/injection, schedule: Q04DX003 (ip), vehicle: Klucel (hydroxypropylcellulose) (HPC)) 95 % of control; (dose: 25.0 mg/kg/injection, schedule: Q04DX003 (ip), vehicle: Klucel (hydroxypropylcellulose) (HPC)) 98 % of control.
Turning to `CC(=O)Nc1c(Cl)c(Cl)c2c(c1Cl)C(=O)c1cc(Cl)ccc1-2`, the T/C runs as follows: under setting [3], 90 % of control; under setting [4], 90 % of control; under setting [5], 90 % of control.
On to `COc1ccc(/C=C2/C(=O)ON=C2C)cc1OC`, for which the T/C is 99 % of control under setting [8], 96 % of control under setting [9] and 96 % of control under setting [10].
Turning to `O=[N+]([O-])c1ccccc1N/N=C\c1c(Cl)[nH]c2ccccc12`, the T/C is 90 % of control under setting [6]; 95 % of control under setting [7]; 90 % of control under setting [11]; 91 % of control (dose: 200.0 mg/kg/injection, schedule: Q04DX002 (ip), vehicle: Klucel (hydroxypropylcellulose) (HPC)); 95 % of control (dose: 400.0 mg/kg/injection, schedule: Q04DX002 (ip), vehicle: Klucel (hydroxypropylcellulose) (HPC)).
For `Cc1ccc2cc3c(ccc4ccccc43)c3c2c1CC3`, the T/C (dose: 25.0 mg/kg/injection, schedule: Q04DX003 (ip), vehicle: saline with Tween-80) was 113 % of control; the T/C (dose: 33.0 mg/kg/injection, schedule: Q01DX009 (ip), vehicle: saline with Tween-80) is 121 % of control; the T/C (dose: 100.0 mg/kg/injection, schedule: Q04DX003 (ip), vehicle: saline with Tween-80) was 150 % of control; the T/C (dose: 300.0 mg/kg/injection, schedule: Q04DX003 (ip), vehicle: saline with Tween-80) was 152 % of control; the T/C (dose: 400.0 mg/kg/injection, schedule: Q04DX003 (ip), vehicle: saline with Tween-80) was 172 % of control.
Take `[NH-]CC(=O)O.[NH-]CC(=O)O.[Ni+2]`: the T/C is, setting by setting: (dose: 6.25 mg/kg/injection, schedule: Q01DX005 (ip), vehicle: saline with Tween-80) 100 % of control; (dose: 12.5 mg/kg/injection, schedule: Q01DX005 (ip), vehicle: saline with Tween-80) 100 % of control.
Regarding `CCCCN(C(=O)c1ccccc1)c1nc2ccccc2n1C`, the T/C is 95 % of control (dose: 100.0 mg/kg/injection, schedule: Q04DX003 (ip), vehicle: saline); 98 % of control (dose: 200.0 mg/kg/injection, schedule: Q04DX003 (ip), vehicle: saline); 99 % of control (dose: 400.0 mg/kg/injection, schedule: Q04DX003 (ip), vehicle: saline).
As for `COC(=O)CCP(CCC(=O)OC)c1ccccc1`, the T/C reads like this: under setting [8], 99 % of control; under setting [9], 99 % of control; under setting [10], 103 % of control.
In the case of `Cc1ccc2c(c1)Pc1cc(C)ccc1S2`, the T/C runs as follows: (dose: 60.0 mg/kg/injection, schedule: Q01DX005 (ip), vehicle: Klucel (hydroxypropylcellulose) (HPC)) 109 % of control; (dose: 120.0 mg/kg/injection, schedule: Q01DX005 (ip), vehicle: Klucel (hydroxypropylcellulose) (HPC)) 101 % of control; (dose: 240.0 mg/kg/injection, schedule: Q01DX005 (ip), vehicle: Klucel (hydroxypropylcellulose) (HPC)) 104 % of control.
As to `CC(C)(C)c1cc(C(=O)O)c(SSc2ccccc2)c(C(=O)O)c1`, the T/C under setting [11] is 105 % of control.
Regarding `CCCCNC1CC(OC2CC(O)(C(C)=O)Cc3c(O)c4c(c(O)c32)C(=O)c2c(OC)cccc2C4=O)OC(C)C1O` (configuration not stated), the T/C by setting is: (dose: 2.0 mg/kg/injection, schedule: Q01DX009 (ip), vehicle: water) 102 % of control; (dose: 4.0 mg/kg/injection, schedule: Q01DX009 (ip), vehicle: water) 100 % of control; (dose: 8.0 mg/kg/injection, schedule: Q01DX009 (ip), vehicle: water) 118 % of control; (dose: 16.0 mg/kg/injection, schedule: Q01DX009 (ip), vehicle: water) 118 % of control.
Regarding `Cc1cccc(NC(=O)Nc2ccccc2Cl)n1`, the T/C was 102 % of control (dose: 50.0 mg/kg/injection, schedule: Q01DX009 (ip), vehicle: Klucel (hydroxypropylcellulose) (HPC)); 96 % of control (dose: 100.0 mg/kg/injection, schedule: Q01DX009 (ip), vehicle: Klucel (hydroxypropylcellulose) (HPC)); 93 % of control (dose: 200.0 mg/kg/injection, schedule: Q01DX009 (ip), vehicle: Klucel (hydroxypropylcellulose) (HPC)).

Values taken from PubChem BioAssay AID330 (DTP/NCI, 2004).
